These results are taken from PubChem BioAssay (NCI).

Holding throughout (assay): growth of human tumour cells (NCI), 48 h
Test [1] has as its system A549 NSCLC.
Test [2] has as its system HT29 colon.
Test [3] deals with K-562 leukemia.
Test [4] has as its system MCF7 breast.
The test system of test [5] is MOLT-4 leukemia.
The subject of test [6] is NCI-H460 lung.
Test [7] has as its system RXF 393 renal.
For test [8], the system named is SF-268 CNS.
For test [9], the system named is SF-539 CNS.
The test system of test [10] is SK-MEL-28 melanoma.

Each structure is given as a SMILES string.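 Cells were grown in 96-well plates and exposed to each compound for 48 hours at five concentrations; endpoints were interpolated linearly between bracketing concentrations, or set to the highest concentration if not reached. Here, GI50 denotes the concentration required for 50% inhibition of growth. TGI: concentration producing complete growth inhibition.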

Turning to `Cc1cc2nc3c4cc(O)ccc4n(CCN(C)C)c3nc2cc1C`, the GI50 is 0.78 µM in [1]; 0.475 µM in test [2]; 0.368 µM in test [3]; 0.45 µM in test [4]; 0.377 µM in test [5]; 0.468 µM in [6]. Besides, the GI50 is 0.828 µM in test [7], 1.25 µM in test [8], 0.519 µM in test [9] and 1.56 µM in test [10]. For the same compound, the TGI is 5.07 µM in test [1]; 2.31 µM in test [2]; greater than 100 µM in test [3]; 3.26 µM in test [4]; 11.2 µM in [5]; 1.99 µM in [6]. The TGI in [7] turned out to be 2.47 µM; in test [8], 5.89 µM; in test [9] it was 2.09 µM; in [10], 3.16 µM.

Take `COC(=O)c1n[nH]c(C)c1N=NN(C)CCC#N`: the TGI is greater than 100 µM in test [1]; 87.8 µM in test [2]; 60 µM in test [3]; 25.7 µM in [4]; 15.1 µM in test [5]; 36.5 µM in [6]. Moreover, the TGI in test [7] is 29.7 µM; in test [8], 50 µM; in test [9], 30.3 µM; in test [10] it was greater than 100 µM.

Turning to `COc1cc(/C=C\c2cc(OC)c(OC)c(OC)c2)cc(N/C=C\C(=O)c2ccc(OC(F)(F)F)cc2)c1OC`, the GI50 in [1] is 4.54 µM; in test [2], 3.07 µM; in test [3], 2.93 µM; in [4] it was 4.08 µM; in [5], 3.99 µM; in test [6], 3.34 µM. Moreover, the GI50 in test [7] is 2.18 µM; in test [8], 8.9 µM; in test [9], 2.21 µM; in test [10] it was 10.4 µM. For the same compound, the TGI in test [1] was greater than 100 µM; in [2], 16.5 µM; in test [3], greater than 100 µM; in test [4] it was greater than 100 µM; in [5], greater than 100 µM; in test [6], 36.4 µM. In addition, the TGI in [7] was 7.17 µM; in test [8] it was greater than 100 µM; in test [9], 5.92 µM; in test [10] it was greater than 100 µM.

As to `CC(C)(CN1CCCCC1)C(=O)/C=C/c1ccc(/C=C/C(=O)C(C)(C)CN2CCCCC2)cc1`, the TGI in test [1] amounted to 2.97 µM; in test [2], 0.514 µM; in [3], 0.375 µM; in test [4], 1.77 µM; in [5] it was 0.33 µM; in test [6], 1.96 µM. Moreover, the TGI is 0.745 µM in [7], 1.71 µM in test [8], 1.55 µM in test [9] and 2.65 µM in test [10].

Regarding `O=Nc1ccc(O)c(=O)cc1`, the GI50 in test [1] was 12.3 µM; in test [2], 2.45 µM; in test [3] it was 0.498 µM; in [4], 2.73 µM; in [5], 0.821 µM; in test [6], 4.76 µM. Besides, the GI50 was 0.572 µM in test [7], 3.43 µM in test [8], 2.67 µM in test [9] and 2.26 µM in [10]. In addition, the TGI in test [1] is 68.9 µM; in test [2], 10.7 µM; in test [3] it was greater than 100 µM; in test [4], 14 µM; in test [5] it was 20.8 µM; in test [6], 23.5 µM. The TGI in [7] was found to be 1.59 µM; in [8], 10.6 µM; in [9], 7.48 µM; in [10], 7.02 µM.

Consider `CS(=O)(=O)Nc1cncc(-c2ccc3ncnc(Nc4ccc(F)c(Cl)c4)c3c2)c1`, for which the GI50 in test [1] is 3.75 µM; in [2] it was 2.43 µM; in [3], 3.88 µM; in test [4], 1.49 µM; in test [5] it was 1.6 µM; in test [6], 4.22 µM. In addition, the GI50 is 1.49 µM in test [7], 2.63 µM in test [8], 2.24 µM in [9] and 2.65 µM in test [10]. In addition, the TGI was found to be 17.4 µM in test [1]; 11.4 µM in [2]; 20.1 µM in test [3]; 8.77 µM in test [4]; 4.65 µM in [5]; 16 µM in test [6]. Besides, the TGI in test [7] is 5.87 µM; in [8] it was 18.7 µM; in [9], 11.3 µM; in test [10], 15.6 µM.

On to `CC(=O)Nc1ccc2c(c1)C(c1ccccc1Cl)=Nc1c(n[nH]c1C)N2`, for which the GI50 in test [1] is 4.46 µM; in test [2], 4.45 µM; in test [3], 17.3 µM; in test [4], 2.26 µM; in test [5] it was 9.75 µM; in [6], 1.85 µM. Further, the GI50 in test [7] was 1.02 µM; in test [8] it was 3.01 µM; in [9] it was 0.999 µM; in test [10] it was greater than 23.5 µM. For the same compound, the TGI in [1], in [2], in test [3], in [4], in test [5] and in test [6] was greater than 25 µM each time. Besides, the TGI was 9.59 µM in test [7], greater than 21.4 µM in [8], 12.5 µM in test [9] and greater than 25 µM in test [10].

Take `COC[C@@H](N=C1NC(=O)/C(=C/c2ccc3ncccc3c2)S1)c1ccccc1`: the GI50 in test [1] was 6.72 µM; in [2] it was 8.83 µM; in [3] it was 10.3 µM; in test [4], 7.24 µM; in test [5] it was 8.88 µM; in [6], 8 µM. The GI50 in test [7] was 6.47 µM; in test [8] it was 11.8 µM; in test [9], 7.36 µM; in test [10], 18.8 µM. Also, the TGI in [1], in test [2], in test [3], in [4], in test [5] and in test [6] was greater than 25 µM in each case. For the same compound, the TGI in [7] was greater than 24.2 µM; in test [8], greater than 25 µM; in [9] it was greater than 24 µM; in test [10], greater than 25 µM.

For `COc1cc(C2Cc3ncccc3-c3[nH]c(=O)c4cccnc4c32)cc(OC)c1OC` (stereo not given), the GI50 in test [1] is 0.825 µM; in test [2] it was 0.347 µM; in test [3] it was 0.313 µM; in test [4] it was 0.277 µM; in test [5], 0.535 µM; in test [6], 0.429 µM. Also, the GI50 in test [7] is 0.289 µM; in [8], 0.67 µM; in test [9] it was 0.269 µM; in test [10] it was 36 µM. Further, the TGI in [1], in test [2], in [3], in [4], in test [5] and in [6] was greater than 100 µM each time. Moreover, the TGI is 2.01 µM in test [7], greater than 100 µM in test [8], 1.55 µM in [9] and greater than 100 µM in test [10].

`COc1ccc(/C=C(/C#N)C(N)=O)c(OC)c1`: the TGI in test [1], in [2], in [3], in [4], in [5] and in test [6] was greater than 100 µM in each case. Further, the TGI in test [7], in test [8], in test [9] and in test [10] was greater than 100 µM each time.

On to `CCOC(=O)c1cc(C(=O)c2cc(OC)c(OC)c(OC)c2)n2ncccc12`, for which the GI50 in [1] is 0.621 µM; in test [2], 0.245 µM; in [3], 0.124 µM; in test [4] it was 0.131 µM; in test [5], 0.575 µM; in test [6] it was 0.335 µM. Also, the GI50 in test [7] is 0.215 µM; in test [8] it was 3.02 µM; in test [9] it was 0.292 µM; in [10], 4.68 µM. Moreover, the TGI in test [1], in test [2], in test [3], in test [4], in [5] and in test [6] was greater than 100 µM in each case. Besides, the TGI in [7] is 1.84 µM; in [8], greater than 100 µM; in test [9], 2.28 µM; in test [10], greater than 100 µM.

On to `O=C1CSCc2sccc21`, for which the TGI in [1], in test [2], in [3], in test [4], in [5] and in test [6] was greater than 100 µM throughout. Besides, the TGI in test [7], in [8], in test [9] and in test [10] was greater than 100 µM throughout.

As for `CCSCC1CC(O)(c2ccccc2)CC(c2ccc(F)cc2)O1` (stereo not given), the GI50 in test [1] was 2.74 µM; in [2], 1.73 µM; in test [3], 1.83 µM; in [4], 2.79 µM; in test [5], 1.66 µM; in test [6] it was 2.24 µM. Further, the GI50 is 1.68 µM in test [7], 2.41 µM in test [8], 1.94 µM in test [9] and 2.15 µM in [10]. The TGI in test [1] is 11 µM; in test [2] it was 3.46 µM; in test [3], 3.93 µM; in test [4], 8.98 µM; in test [5], 4.14 µM; in test [6] it was 4.63 µM. Also, the TGI in [7] was 3.47 µM; in test [8], 6.11 µM; in test [9], 3.84 µM; in [10] it was 4.44 µM.

Regarding `CC(C)C1=CC(=O)C(C)(C2C(O)CC3(C)C4CC=C5C(CCC(OC6OC(CO)C(O)C(O)C6OC6OC(C)C(O)C(O)C6O)C5(C)C)C4(C)C(=O)CC23C)O1` (stereo not given), the TGI in test [1], in [2], in [3], in [4], in [5] and in test [6] was greater than 100 µM in each case. The TGI in [7], in test [8], in test [9] and in test [10] was greater than 100 µM in each case.

For the compound `CC(C)c1[nH]nc(C(N)=O)c1N=NN(C)C`, the TGI in [1], in test [2], in test [3], in [4], in test [5] and in [6] was greater than 100 µM throughout. The TGI in test [7], in test [8], in test [9] and in test [10] was greater than 100 µM in each case.

As to `COc1ccc(C2=N[C@@H](Cc3ccccc3)C(=O)Nc3ccsc32)cc1`, the GI50 is 4.69 µM in test [1]; 4.04 µM in [2]; 3.75 µM in test [3]; 3.73 µM in [4]; 3.98 µM in [5]; 3.53 µM in test [6]. Further, the GI50 in [7] was 2.75 µM; in [8], 10.4 µM; in test [9] it was 2.75 µM; in test [10], 9.66 µM. Moreover, the TGI in test [1] is 29.5 µM; in [2], 13.4 µM; in [3] it was 27 µM; in test [4] it was 25.4 µM; in [5], 19.3 µM; in [6] it was 14.4 µM. In addition, the TGI in test [7] turned out to be 9.6 µM; in test [8], 43.8 µM; in [9] it was 9.84 µM; in [10], 24.5 µM.

As for `COc1ccc(/C=C/C(=O)c2cc(OC)c(OC)c(OC)c2)cc1OCC(=O)Nc1nc2ccc(OC(F)(F)F)cc2s1`, the GI50 is 1.99 µM in test [1]; 3.66 µM in test [2]; 0.438 µM in test [3]; 1.32 µM in test [4]; 2.89 µM in [5]; 2.43 µM in test [6]. Besides, the GI50 in test [7] was 1.58 µM; in test [8], 1.2 µM; in test [9], 0.293 µM; in [10] it was 3.31 µM. The TGI in test [1] is 4.7 µM; in test [2], 79.4 µM; in test [3], 10.2 µM; in test [4] it was 7.77 µM; in test [5], greater than 100 µM; in test [6], 6.25 µM. Also, the TGI worked out at 3.74 µM in test [7], 8.5 µM in test [8], 1.18 µM in test [9] and 25.9 µM in test [10].
